In ChEMBL document CHEMBL1201862, “PubChem BioAssay data set” (2004):
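Each compound was tested at five concentrations against cells in 96-well plates for 48 hours. GI50 is the concentration that inhibits growth by half.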 Activity calls are given as the source filed them. Cut-off read from the data, not from the text of the source: active = GI50 up to about 1.1 µM and inactive = higher.

Experiments:
Assay in all cases: DTP human tumour cell line panel, 48 h
PC-3 = tested on: PC-3
IGROV-1 = tested on: IGROV-1
HL-60 = tested on: HL-60
T47D = tested on: T47D
TK-10 = tested on: TK-10
NCI-H23 = tested on: NCI-H23
SF-268 = tested on: SF-268
SK-MEL-28 = tested on: SK-MEL-28
Hs-578T = tested on: Hs-578T
EKVX = tested on: EKVX
UO-31 = tested on: UO-31
KM12 = tested on: KM12
RXF 393 = tested on: RXF 393
DU-145 = tested on: DU-145
MDA-MB-231 = tested on: MDA-MB-231
SF-539 = tested on: SF-539
SR = tested on: SR
OVCAR-3 = tested on: OVCAR-3
SK-MEL-5 = tested on: SK-MEL-5
Malme-3M = tested on: Malme-3M
SW-620 = tested on: SW-620
A498 = tested on: A498
MOLT-4 = tested on: MOLT-4
U-251 = tested on: U-251
M14 = tested on: M14
UACC-62 = tested on: UACC-62
RPMI-8226 = tested on: RPMI-8226
A549 = tested on: A549
OVCAR-4 = tested on: OVCAR-4
HCT-15 = tested on: HCT-15
SNB-75 = tested on: SNB-75
786-0 = tested on: 786-0
HOP-62 = tested on: HOP-62
NCI/ADR-RES = tested on: NCI/ADR-RES
SF-295 = tested on: SF-295
UACC-257 = tested on: UACC-257
NCI-H460 = tested on: NCI-H460
ACHN = tested on: ACHN
COLO 205 = tested on: COLO 205
SN12C = tested on: SN12C
SK-OV-3 = tested on: SK-OV-3
MDA-MB-435 = tested on: MDA-MB-435
SK-MEL-2 = tested on: SK-MEL-2
LOX IMVI = tested on: LOX IMVI
OVCAR-8 = tested on: OVCAR-8
NCI-H226 = tested on: NCI-H226
NCI-H522 = tested on: NCI-H522
CCRF-CEM = tested on: CCRF-CEM
HCT-116 = tested on: HCT-116
MCF7 = tested on: MCF7
HT-29 = tested on: HT-29
MDA-N = tested on: MDA-N
K562 = tested on: K562
BT-549 = tested on: BT-549
HCC 2998 = tested on: HCC 2998
SNB-19 = tested on: SNB-19
OVCAR-5 = tested on: OVCAR-5

Measured: GI50

CC(C)(C)c1ccc(O)c(Br)c1
inactive: PC-3 > 100 µM | IGROV-1 19.1 µM | HL-60 36.6 µM | T47D 11.5 µM | TK-10 > 100 µM | NCI-H23 > 100 µM | SF-268 > 100 µM | SK-MEL-28 > 100 µM | Hs-578T > 100 µM | EKVX > 100 µM | UO-31 > 100 µM | KM12 63.5 µM | RXF 393 34.1 µM | DU-145 > 100 µM | MDA-MB-231 > 100 µM | SF-539 > 100 µM | SR 37.3 µM | OVCAR-3 > 100 µM | SK-MEL-5 > 100 µM | Malme-3M > 100 µM | SW-620 > 100 µM | A498 > 100 µM | MOLT-4 > 100 µM | U-251 > 100 µM | M14 > 100 µM | UACC-62 95.9 µM | RPMI-8226 > 100 µM | A549 > 100 µM | OVCAR-4 > 100 µM | SNB-75 15.1 µM | 786-0 > 100 µM | HOP-62 > 100 µM | NCI/ADR-RES > 100 µM | SF-295 > 100 µM | UACC-257 26.2 µM | NCI-H460 > 100 µM | ACHN > 100 µM | COLO 205 > 100 µM | SN12C > 100 µM | SK-OV-3 > 100 µM | MDA-MB-435 > 100 µM | SK-MEL-2 > 100 µM | LOX IMVI > 100 µM | OVCAR-8 > 100 µM | NCI-H226 > 100 µM | NCI-H522 > 100 µM | CCRF-CEM > 100 µM | HCT-116 > 100 µM | MCF7 > 100 µM | HT-29 > 100 µM | MDA-N > 100 µM | K562 > 100 µM | BT-549 > 100 µM | HCC 2998 51.8 µM | SNB-19 > 100 µM | OVCAR-5 > 100 µM
> 100 µM: HCT-15
